According to a melting point compilation (Tetko et al.; mined from patent text by program, amines drawn as free bases though some values may be those of a salt):

Row | Structure (SMILES) | melting point
1 | CCCCCOc1cc(C(=O)O)cc([N+](=O)[O-])c1C(=O)c1ccccc1 | 163 to 165 °C
2 | CC(C)(c1ccc2ncccc2c1)n1nnc2ccc(-c3ccc(C(=O)NC4CC4)c(F)c3)nc21 | 156 to 159 °C
3 | Cc1c[nH]c(=O)n(Cc2ccccc2)c1=O | 208 to 210 °C
4 | CCOC(=O)c1c(C)nc(O)nc1O | 145 to 148 °C
5 | CCCn1cc(-c2ccc3cc4c(cc3c2)C(C)(C)CCC4(C)C)cc1C(=O)O | 143 to 145 °C
6 | O=C(NCCN1CCC2(CC1)C(=O)NCN2c1ccccc1)c1ccc(Cl)cc1 | 201 °C
7 | O=[N+]([O-])c1cc(Cl)cc(O)c1O | 108 to 111 °C
8 | Nc1ncnc2c1c(-c1ccccc1)cn2-c1cccc(O)c1 | 227 to 228 °C
9 | OC/C=C/c1ccc(C(F)(F)F)cc1 | 53 to 55 °C
10 | Cc1cccc(-n2nc3c(c2-c2cc4cnccc4s2)CCC3)n1 | 146 to 148 °C
11 | COc1cc(C(C)C)ccc1C1COc2c(C)c(C)cc(C)c21 (stereo unspecified) | 102 to 103 °C
12 | CCCCCCCCCCCCCCCCOCC(CO)OC (stereo unspecified) | 56 °C
13 | C=CC[C@@H](CO)[C@@H](O)[C@H](O)C(=O)CO | 112 to 113 °C
14 | O=C(O)COC1(Cl)CC(c2ccccc2)=Nc2ccccc21 (stereo unspecified) | 230 °C
15 | CCCc1c(S)ccc2c(C)c(CC(=O)OC)c(=O)oc12 | 131 to 132 °C
16 | Cc1nccn1CC1CCc2c(c3ccccc3n2C)C1NO (stereo unspecified) | 140 to 144 °C
17 | CNC(=O)NCCN1CCC(Nc2nc3ccccc3n2Cc2cnc(C)o2)CC1 | 203 °C
18 | CC(C)(S)C(NC(=O)c1ccc(Cl)cc1)C(=O)O (stereo unspecified) | 174 °C

Row | Structure (SMILES) | melting point
19 | CCOC(=O)c1c(NC(C)=O)cccc1C(C)=O | 88 °C
20 | CC(=O)OC1CSC(Oc2ccc(-c3ccncc3)nc2F)C(OC(C)=O)C1OC(C)=O (stereo unspecified) | 164 °C
21 | CC(O)(CC(=O)O)c1ccc(-c2ccc(F)cc2)cc1 (stereo unspecified) | 81 to 82 °C
22 | COc1cc(CC(C#N)(C=O)C(OC)OC)cc(OC)c1OC (stereo unspecified) | 118 to 122 °C
23 | O=C(CNC(=O)c1n[nH]cc1NC(=O)c1ccccn1)c1ccccc1 | 270 to 271 °C
24 | CC(C)Oc1cccc2oc(-c3ccccc3)cc(=O)c12 | 98 to 99 °C
25 | O=C(NC(=O)c1c(F)cccc1F)Nc1cc(Cl)c(Oc2ccc(Cl)c3ccccc23)c(Cl)c1 | 237 to 239 °C
26 | COc1ccc2c3c1OC1C(=O)CCC4(OC)C(C2)N(C)CCC314 (stereo unspecified) | 140 to 142 °C
27 | COC1=CC(N)C(C)(Cl)C=C1 (stereo unspecified) | 83 to 85 °C
28 | O=C(Nc1ccc(OCCCCl)c2ccccc12)c1cc(F)cc(N2CCCCC2)c1 | 181 to 182 °C
29 | O=C(Nc1nc2c(Oc3cc(-c4ccc(C(F)(F)F)cc4)ncn3)cccc2s1)C(O)c1ccccc1 (stereo unspecified) | 198 to 205 °C
30 | Cc1cnn(-c2nc3ccccc3c(=O)[nH]2)c1 | 169 to 171 °C
31 | CCOc1ccc(S(=O)(=O)Cl)cc1OC | 72 to 73 °C
32 | COc1ccc(Nc2nc(N3CCOCC3)nc(-n3c(C(F)F)nc4c(OC)cccc43)n2)cn1 | 201 to 202 °C
33 | CCCCOC(=O)c1cc(O)c(O)c(C#N)c1 | 135 to 140 °C
34 | O=C(O)C(=O)c1ccc(OCCCC(=O)c2ccc3ccccc3c2)cc1 | 133 to 135 °C
35 | COc1cccc2c(=O)c3c(Cl)ccc([N+](=O)[O-])c3[nH]c12 | 315 to 320 °C

Next, values leading:

Row | melting point | Structure (SMILES)
36 | 249 °C | Nc1nc2c(s1)CCc1nc3ccccn3c1-2
37 | 170 to 174 °C | CCOC(=O)Nc1nc(C(=O)C(=O)OC)ns1
38 | 90 °C | C=CCN1CCC(Nc2ccc(Cl)cc2)CC1
39 | 238 to 239 °C | Oc1ccc(-c2cc(O)ccc2-c2cc3cc(O)ccc3o2)cc1
40 | 61 to 62 °C | O=C(O)CCCCCCCCC=Cc1cccs1
41 | 193 to 196 °C | O=C(Nc1ccc(-n2nc(C(F)(F)F)cc2C2CC2)c(F)c1)c1c(F)cccc1F
42 | 160 to 161 °C | N#Cc1cnn(-c2ccc(Cl)c(Cl)c2Cl)c1N1CCCC1=O
43 | 139 to 140 °C | O=S1N=C(NCCCN(Cc2ccccc2)c2ccccn2)C(NCc2ccccn2)=N1 (stereo unspecified)
44 | 36 to 38 °C | CCCCC(C)C(C=Cc1ccc(OCc2ccccc2)c(OCc2ccccc2)c1)OC (stereo unspecified)
45 | 195 to 202 °C | O=C(O)[C@H]1Cc2ccccc2CN1S(=O)(=O)c1ccc(-c2ccccc2)cc1
46 | 182 to 184 °C | N=C(Nc1ccc(Cl)cc1)Nc1ncccc1OCc1ccc(F)cc1F
47 | 164 to 167 °C | c1ccc(-c2cnc3ncnn3c2)cc1
48 | 30 °C | CCCCCCCCc1ccc(C=CCO)cc1
49 | 139 °C | Cc1c(C(F)(F)F)n[nH]c1-c1ccc(Cl)cc1
50 | 132 to 135 °C | COc1ccc(C(Cc2ccccc2)=NO)cc1
51 | 51 °C | CCCCCC(=O)C=Cc1ccc(CC(=O)O)s1
52 | 88 °C | CS(=O)CCNC(N)=O (stereo unspecified)
53 | 173 to 175 °C | Nc1nc(-c2cc(Cl)ccc2Cl)nc(N2CCC(CO)CC2)n1
54 | 85 to 86 °C | COc1ccc(-c2nc(SCCCCCc3nc4ccccc4[nH]3)[nH]c2-c2ccc(OC)cc2)cc1
55 | 108 to 110 °C | CC1CCc2[nH]c3ccc(Br)cc3c2C1 (stereo unspecified)
56 | 91 °C | CC1(C)CC(OC(=O)CCCCCCCCC(=O)OC2CC(C)(C)N(CC#N)C(C)(C)C2)CC(C)(C)N1CC#N

Row | melting point | Structure (SMILES)
57 | 70 to 72 °C | O=C(c1ccccc1)c1cc(Cl)ccc1C=CCN1C(=O)c2ccccc2C1=O
58 | 192 to 193 °C | COc1ccc(C=C2Cc3c(C)cc(C)c(O)c3C2=O)cc1
59 | 185 to 187 °C | OCC1OC(n2cnc3c(NC4CCCCC4)ncnc32)C(O)C1O (stereo unspecified)
60 | 89 to 91 °C | O=C1CCCc2c(F)cc(F)cc21
61 | 207 to 209 °C | CCCOc1ccc(-c2ccc3c(c2)C=C(C(=O)Nc2ccc(CN(C)C4CCOCC4)cc2)CCN3C=O)cc1
62 | 134 to 135 °C | N#CC(C#N)=CN(N=C(C#N)C#N)c1cccc(F)c1
63 | 180 to 182 °C | COc1ccc(-c2nnc3c4ccccc4c(OCCCCO)nn23)cc1
64 | 125 to 126 °C | CCCCc1nn(-c2ccc(C(F)(F)F)cn2)cc1CCCOc1nn(C)cc1CC(=O)O
65 | 85 to 88 °C | COC(=O)c1ccc2c(c1)Sc1ccc(F)cc1C(O)=C2
66 | 56 to 57 °C | CCCCOc1ccc(C=CCCCC(=O)O)cc1
67 | 51 to 55 °C | CCCCCCCCOCC(O)COc1ccc(-n2nc3ccccc3n2)c(O)c1 (stereo unspecified)
68 | 148 to 149 °C | O=C1CCCC(=O)C1c1ccccc1Cl
69 | 127 to 132 °C | CCOC(=O)/C=C(C)/C(F)=C/C=C(C)/C=C/c1c(Cl)cc(OC)c(C)c1Cl
70 | 70 to 72 °C | CC(C)(C)Oc1ccc(CCC(=O)NCCC(=O)O)cc1
71 | 225 to 227 °C | OCC1Cc2c([nH]c3ccccc23)CN1C(=S)S (stereo unspecified)
72 | 144 to 147 °C | CCCCc1nc(Cl)c(CNC(=O)OCC)n1Cc1ccc(-c2ccccc2C(=O)O)cc1
73 | 122 to 124 °C | N#CCN1CCc2ccc3c(c21)CCO3
74 | 156 °C | CSC1=Nc2ccc(C(=O)c3cccnc3)cc2CN1
75 | 81 to 83 °C | C[C@H]1[C@H](O[Si](C)(C)C(C)(C)C)[C@H](O)C(S(=O)(=O)c2ccccc2)=C[C@H](C)[C@H]1O[Si](C)(C)C(C)(C)C
76 | 89 °C | C[C@@H]1SC(N)=N[C@H]1Cc1ccccc1
